These are literature values, as cited in patent US20120148512A1, “Method for Increasing the Sun Protection Factor of a Cosmetic and/or Dermatological Preparation” (BASF SE, priority 2006, published 2012).

Molecules are shown by their SMILES.

For `O=S(=O)(O)c1ccc2nc(-c3ccccc3)[nH]c2c1` [2-phenylbenzimidazole-5-sulfonic acid], where the note is “following sun-simulated irradiation (5 and 10 MED)”, the “absorption retained in the absorption maximum” value was “more than 90%”.
`COc1ccc(C(=O)CC(=O)c2ccc(C(C)(C)C)cc2)cc1` [BMDBM, 4-(tert-butyl)-4′-methoxydibenzoylmethane]: the photostability entry (filter substance on its own) is listed as “not photostable”.
